Assay results published in US8003673B2, “Daptomycin for the treatment of biofilm and catheter salvage” (Cubist Pharmaceuticals, Inc., priority 2006, dated 2011).
Values after ≈ are worked out from the molar mass of the structure shown. Read-outs that look alike come from different tables or passages of the source.

What was measured:
[1] = test system: Staphylococcus epidermidis; experiment: Susceptibility (MIC) of S. epidermidis isolates used in CVC studies
Staphylococcus aureus = experiment: Susceptibility (MIC) of S. aureus #42 control strain; assay type: cell-based
[2] = test system: S. epidermidis CVC infection; experiment: Rat model of CVC infection, antibiotic lock therapy; assay type: in vivo, Sprague Dawley rats; conditions: for Metastatic infection after lock therapy: lock therapy combined with SC dosing
Description: (§1) Male Sprague Dawley rats (˜250 g) with catheterized jugular veins were used in these studies. Rat catheters (polyurethane tubing, 0.025 inch internal diameter) were inoculated with a culture of S. epidermidis at 5×10^8 CFU/ml. The total volume of the catheters is approximately 40 μl. The catheters were flushed with heparinized saline 1 hour after inoculation, and were maintained by daily flushes. The catheter infection was monitored by daily blood draws that were plated and quantified.
(§2) Daptomycin, vancomycin and nafcillin were used as therapy. Two different dosing regimes were used. The first mimicked clinical infusion with daptomycin administered at 5 mg/ml in the line for 30 minutes once daily compared to vancomycin at 5 mg/ml for 60 minutes twice daily, for a total of 4 days. The second regime simulated antibiotic lock therapy with an 18 hour exposure of daptomycin or vancomycin at 5 mg/ml, followed by a heparinized saline flush, daily for 3 days. In both regimes, the animals received parenteral doses of the appropriate antibiotic by subcutaneous route to simulate total body exposure (as it was not possible to administer the correct dosages through the line at 5 mg/ml). Most trials involved a therapy period, followed by a period of no antibiotic therapy to monitor for resurgence of infection due to surviving bacterial colonies.
(§3) Infection levels were monitored by daily blood draws through the infected catheter. For the terminal harvest, a final blood draw was taken and then the flushed catheter was harvested, and analyzed for surviving bacteria by sonication, vortexing, and plating. The vena cava, heart, lung, kidney, and spleen were assayed as potential metastatic infection sites by aseptic harvest, homogenization, and plating.

[3] = test system: Methicillin-resistant coagulate negative staphylococci biofilms; assay type: cell-based, coagulase negative staphylococci (S. epidermidis isolates)
Description: Methicillin-resistant coagulate negative staphylococci biofilms were grown to approximately 10^5 cells per cm^2 for 24 h in glass test tubes, planktonic bacteria rinsed away and Mueller Hinton broth (calcium supplemented to […] in daptomycin tests) containing antimicrobials added to the tubes. The concentrations of antimicrobials studied were two-fold dilutions from 64 to 1 μg/mL of daptomycin, rifampin, or daptomycin plus 0.5 μg/mL rifampin. The tests were incubated overnight in room air at 37° C. The cell density in rinsed biofilms was determined prior to addition of antimicrobials and after incubation. The change in bacterial density after incubation with antimicrobials was determined, and the results were expressed as the lowest antimicrobial concentration that killed 99.90% of biofilm bacteria. Bacteria recovered from tests containing rifampin were tested for rifampin susceptibility.

[4] = test system: S. epidermidis biofilm in catheter; experiment: Histopathology of CVC biofilms in the rat model; assay type: in vivo, Sprague Dawley rats
Description: The nature of the CVC infection and resulting biofilms in the catheter was determined through histopathology. The data on histopathology can be summarized as follows: • 1. Eight days after implantation, the rat central venous catheter model develops focal biofilms with or without bacterial colonies in the catheter's inner luminal surfaces. At this time point, the thickness of the biofilm varies between 7 to 15 microns. • 2. After 12 days of implantation, the fibrils making up the inner luminal surface biofilm appear to be denser and more organized, and the biofilm layer is slightly thicker (up to 25 microns). • 3. In the saline negative controls, bacterial colonies were present in the biofilm, and identified as Gram positive cocci. • 4. […] However, cocci-like, Gram positive individual round structures were noted. • 5.
At day 12 post infection in untreated rats, as in the previous time point, biofilms tended to be present in the inner luminal surfaces of the indwelling catheter, 5-25 microns thick, and contained variable numbers of basophilic granular bacterial colonies (confirmed by Gram stain). However, in contrast to the previous time point, focal portions of the luminal protein cast appeared to be more organized and contained numerous bluish bacterial colonies. See FIG. 10 showing the biofilm appearance at day 12 post infection. […] Rat A1 served as negative control and received saline (2 mL/kg SC+saline via catheter); Rat A6 received low-dose daptomycin (10 mg/kg SC+5 mg/mL via catheter); Rat A12 received high-dose daptomycin (33 mg/kg SC+5 mg/mL via catheter); and Rat A17 received vancomycin (50 mg/kg SC+5 mg/mL via catheter). Tissues from the four rats were evaluated. FIG. 11, below, is a composite of the findings for all four rats.
FIG. 11 provides histopathological evidence of daptomycin and vancomycin efficacy after 4 days of infusion therapy. In FIG. 11, from left to right, the images illustrate the CVC tissues from rats A1, A6, A12, and A17, respectively. The upper images are all H&E-stained and the bottom images are all Gram-stained. […] These round structures surrounded or encircled cell membranes.

[5] = test system: S. epidermidis CVC infection; experiment: Rat model of CVC infection, infusion therapy; assay type: in vivo, Sprague Dawley rats
Description: as §1, §2, §3

[6] = test system: stationary phase S. epidermidis; experiment: In vitro model of stationary phase bacteria (kill kinetics); assay type: cell-based; conditions: for Cidal activity against stationary phase culture: through 24 hours
Description: The impact of cidal activity of antibacterial compounds on stationary phase bacteria was assayed. Cultures of S. epidermidis and S. aureus were grown to stationary phase (>1×10^9 and centrifuged, washed 2×, and then resuspended into saline or lactated Ringer's solution. The cultures were treated with either daptomycin or vancomycin at 5 mg/ml and the decrease in viable bacteria were measured through 24 hours to determine the kill kinetics.

[7] = strain 119 Staphylococcus epidermidis
[8] = strain 1315 Staphylococcus epidermidis
[9] = strain 1316 Staphylococcus epidermidis
[10] = strain 1317 Staphylococcus epidermidis
[11] = strain 1318 Staphylococcus epidermidis
[12] = strain 1319 Staphylococcus epidermidis
[13] = strain 1320 Staphylococcus epidermidis
[14] = strain 42 Staphylococcus aureus, read-out: MIC
[15] = following 7 days of antibiotic-free heparin flushes
[16] = Antimicrobial Concentration ≧64
[17] = day 15, after 6 days of antibiotic-free heparin flushes following infusion therapy

Row | MIC [1, 11] [µg/mL] | MIC (Staphylococcus aureus; [14]) [µg/mL] | SMILES | MIC [1, 7] [µg/mL] | MIC [1, 8] [µg/mL] | MIC [1, 9] [µg/mL] | MIC [1, 10] [µg/mL] | MIC [1, 12] [µg/mL] | MIC [1, 13] [µg/mL] | Animals with positive catheter at harvest after lock therapy [2, 15] | Metastatic infection after lock therapy [2] | further results
1 | 1 (≈ 2.96 µM) | 2 (≈ 5.93 µM) | CC(=O)NC[C@H]1CN(c2ccc(N3CCOCC3)c(F)c2)C(=O)O1 [Linezolid] | 1 (≈ 2.96 µM) | 0.5 (≈ 1.48 µM) | 1 (≈ 2.96 µM) | 0.5 (≈ 1.48 µM) | 0.5 (≈ 1.48 µM) | 1 (≈ 2.96 µM) |  |  | 
2 | > 16 | 0.125 (≈ 0.302 µM) | CCOc1ccc2ccccc2c1C(=O)N[C@@H]1C(=O)N2[C@@H]1SC(C)(C)[C@@H]2C(=O)O [Nafcillin] | 0.031 (≈ 0.0748 µM) | 2 (≈ 4.83 µM) | 16 (≈ 38.6 µM) | 0.125 (≈ 0.302 µM) | 16 (≈ 38.6 µM) | > 16 | all | A significant proportion of nafcillin-treated animals showed positive metastatic infections at multiple sites | 

Row | SMILES | MIC [1, 11] [µg/mL] | MIC (Staphylococcus aureus; [14]) [µg/mL] | MIC [1, 7] [µg/mL] | MIC [1, 8] [µg/mL] | MIC [1, 9] [µg/mL] | MIC [1, 10] [µg/mL] | MIC [1, 12] [µg/mL] | MIC [1, 13] [µg/mL] | Animals with positive catheter at harvest after lock therapy [2, 15] | Metastatic infection after lock therapy [2] | further results
3 | CO[C@H]1/C=C/O[C@@]2(C)Oc3c(C)c(O)c4c(O)c(c(/C=N/N5CCN(C)CC5)c(O)c4c3C2=O)NC(=O)/C(C)=C\C=C\[C@H](C)[C@H](O)[C@@H](C)[C@@H](O)[C@@H](C)[C@H](OC(C)=O)[C@@H]1C [Rifampicin] |  | < 0.004 | 0.008 (≈ 0.00972 µM) | < 0.004 | 0.008 (≈ 0.00972 µM) | > 4 | < 0.004 | 0.008 (≈ 0.00972 µM) |  |  | # of isolates (lowest concentration that killed 99.90% of biofilm bacteria) ([3]; Antimicrobial Concentration 1): 1 (1); (N) number of rifampin susceptible isolates that became rifampin resistant during test ([3]; Antimicrobial Concentration 1): 1 (1); Mean log10 reduction ([3]; Antimicrobial Concentration 1): 3.5 log10; # of isolates (lowest concentration that killed 99.90% of biofilm bacteria) ([3]; Antimicrobial Concentration 2): 0; # of isolates (lowest concentration that killed 99.90% of biofilm bacteria) ([3]; Antimicrobial Concentration 4): 1; Mean log10 reduction ([3]; Antimicrobial Concentration 4): 3.2 log10; # of isolates (lowest concentration that killed 99.90% of biofilm bacteria) ([3]; Antimicrobial Concentration 8): 2; Mean log10 reduction ([3]; Antimicrobial Concentration 8): 3.4 log10; # of isolates (lowest concentration that killed 99.90% of biofilm bacteria) ([3]; Antimicrobial Concentration 16): 2; (N) number of rifampin susceptible isolates that became rifampin resistant during test ([3]; Antimicrobial Concentration 16): 1; Mean log10 reduction ([3]; Antimicrobial Concentration 16): 3.0 log10; # of isolates (lowest concentration that killed 99.90% of biofilm bacteria) ([3]; Antimicrobial Concentration 32): 0; # of isolates (lowest concentration that killed 99.90% of biofilm bacteria) [3, 16]: 21; (N) number of rifampin susceptible isolates that became rifampin resistant during test [3, 16]: 7; Mean log10 reduction [3, 16]: 1.4 log10
4 | CN[C@H](CC(C)C)C(=O)N[C@H]1C(=O)N[C@@H](CC(N)=O)C(=O)N[C@H]2C(=O)N[C@H]3C(=O)N[C@H](C(=O)N[C@H](C(=O)O)c4cc(O)cc(O)c4-c4cc3ccc4O)[C@H](O)c3ccc(c(Cl)c3)Oc3cc2cc(c3O[C@@H]2O[C@H](CO)[C@@H](O)[C@H](O)[C@H]2O[C@H]2C[C@](C)(N)[C@H](O)[C@H](C)O2)Oc2ccc(cc2Cl)[C@H]1O [Vancomycin] | 2 (≈ 1.38 µM) |  | 1 (≈ 0.69 µM) | 1 (≈ 0.69 µM) | 1 (≈ 0.69 µM) | 1 (≈ 0.69 µM) | 1 (≈ 0.69 µM) | 1 (≈ 0.69 µM) | None | cleared and prevented reemergence of metastatic infection | Overall outcome of lock therapy ([2]; 18 hour lock at 5 mg/ml): curative in lock therapy; Animals with positive blood draws after lock therapy [2, 15]: None; Biofilm formation and Gram positive bacterial colonies in the biofilm (histopathology summary) ([4]; 5 mg/mL via the catheter): did not prevent biofilm formation, or completely the growth and presence of Gram positive bacterial colonies in the biofilm; Bacterial colonies in biofilm, histopathology of single rats ([4]; after 4 days of infusion therapy, rat A12 daptomycin 33 mg/kg SC + 5 mg/mL via catheter, rat A17 vancomycin 50 mg/kg SC + 5 mg/mL via catheter): Biofilms containing true bacterial colonies; MIC (Staphylococcus aureus; Staphylococcus aureus): 0.25 µg/mL (≈ 0.173 µM); Catheter infection by CVC blood draw after infusion therapy ([5]; 5 mg/ml in line, daptomycin once a day, vancomycin twice a day, after three days of therapy (day 8)): reduced most catheter infections to a non-detectable level; Relative efficacy in the rat CVC model ([5]; comparison between treatments): equally effective (to daptomycin in Ringer's); Animals with harvested catheter positive for S. epidermidis CFUs [5, 17]: 2/6; Animals with positive blood draws through the catheter [5, 17]: 0/6; Clearing of blood draw cultures during infusion therapy ([5]; doses days 5-8, daptomycin 30 minute once a day, vancomycin 60 min twice a day): negative blood draw cultures by day 8; Metastatic infection after infusion therapy (vena cava, heart, lung, kidney, spleen) ([5]; infusion therapy, same groups as FIG. 3): very little metastatic infection at any site; Cidal activity against stationary phase culture ([6]; 5 mg/ml in lactated Ringer's): no cidal activity; Cidal activity against stationary phase culture ([6]; 5 mg/ml in lactated Ringer's, listed as vancomycin): not cidal; Cidal activity against stationary phase culture ([6]; 5 mg/ml in saline): neither daptomycin nor vancomycin had cidal activity; Cidal activity against stationary phase S. epidermidis (conclusion) ([6]; in vitro, medium not stated): not cidal
